PubChem BioAssay AID1259407 (Chemical Carcinogenesis Research Information System (CCRIS), 2018)
Calls of active or inactive are those of the source. How the calls were made is not given here.

Tested on: CCRIS mutagenicity, Ames/micronucleus/aberration tests
Assay: CCRIS mutagenicity studies
[1] = Test System: AMES SALMONELLA TYPHIMURIUM, Strain/Indicator: TA100, Metabolic Activation: NONE, Method: STANDARD PLATE

In the case of `Cc1ncc[nH]1`, the mutagenic call (End Point: IN VIVO MICRONUCLEUS, Test System: BONE MARROW POLYCHROMATIC ERYTHROCYTES, Species: MOUSE, Strain/Sex: B6C3F1/MALE, Route: IP) is reported as “inactive; negative”, the mutagenic call (End Point: IN VIVO MICRONUCLEUS, Test System: BONE MARROW POLYCHROMATIC ERYTHROCYTES, Species: RAT, Strain/Sex: F344/N/MALE, Route: IP) is reported as “inactive; negative” and the mutagenic call (End Point: IN VIVO MICRONUCLEUS, Test System: PERIPHERAL BLOOD NORMOCHROMATIC ERYTHROCYTES, Species: MOUSE, Strain/Sex: B6C3F1/MALE, FEMALE, Route: ORAL (DIET)) is reported as “active; positive”. For the same compound, the mutagenic call (Test System: AMES SALMONELLA TYPHIMURIUM, Strain/Indicator: TA97, Metabolic Activation: HAMSTER, LIVER, S-9, AROCLOR 1254, Method: PREINCUBATION) was “inactive; negative”, the mutagenic call (Test System: AMES SALMONELLA TYPHIMURIUM, Strain/Indicator: TA97, Metabolic Activation: NONE, Method: PREINCUBATION) was “inactive; negative” and the mutagenic call (Test System: AMES SALMONELLA TYPHIMURIUM, Strain/Indicator: TA97, Metabolic Activation: RAT, LIVER, S-9, AROCLOR 1254, Method: PREINCUBATION) was “inactive; negative”. The mutagenic call (Test System: AMES SALMONELLA TYPHIMURIUM, Strain/Indicator: TA98, Metabolic Activation: HAMSTER, LIVER, S-9, AROCLOR 1254 (10%), Method: STANDARD PLATE) was “inactive; negative”, the mutagenic call (Test System: AMES SALMONELLA TYPHIMURIUM, Strain/Indicator: TA98, Metabolic Activation: HAMSTER, LIVER, S-9, AROCLOR 1254, Method: PREINCUBATION) was “inactive; negative” and the mutagenic call (Test System: AMES SALMONELLA TYPHIMURIUM, Strain/Indicator: TA98, Metabolic Activation: NONE, Method: PREINCUBATION) was “inactive; negative”. The mutagenic call (Test System: AMES SALMONELLA TYPHIMURIUM, Strain/Indicator: TA98, Metabolic Activation: NONE, Method: STANDARD PLATE) was “inactive; negative”, the mutagenic call (Test System: AMES SALMONELLA TYPHIMURIUM, Strain/Indicator: TA98, Metabolic Activation: RAT, LIVER, S-9, AROCLOR 1254 (10%), Method: STANDARD PLATE) was “inactive; negative” and the mutagenic call (Test System: AMES SALMONELLA TYPHIMURIUM, Strain/Indicator: TA98, Metabolic Activation: RAT, LIVER, S-9, AROCLOR 1254, Method: PREINCUBATION) was “inactive; negative”. The mutagenic call (Test System: AMES SALMONELLA TYPHIMURIUM, Strain/Indicator: TA100, Metabolic Activation: HAMSTER, LIVER, S-9, AROCLOR 1254 (10%), Method: STANDARD PLATE) was “inactive; negative”, the mutagenic call (Test System: AMES SALMONELLA TYPHIMURIUM, Strain/Indicator: TA100, Metabolic Activation: HAMSTER, LIVER, S-9, AROCLOR 1254, Method: PREINCUBATION) was “inactive; negative” and the mutagenic call (Test System: AMES SALMONELLA TYPHIMURIUM, Strain/Indicator: TA100, Metabolic Activation: NONE, Method: PREINCUBATION) was “inactive; negative”. The mutagenic call [1] was “inactive; negative”, the mutagenic call (Test System: AMES SALMONELLA TYPHIMURIUM, Strain/Indicator: TA100, Metabolic Activation: RAT, LIVER, S-9, AROCLOR 1254 (10%), Method: STANDARD PLATE) was “inactive; negative” and the mutagenic call (Test System: AMES SALMONELLA TYPHIMURIUM, Strain/Indicator: TA100, Metabolic Activation: RAT, LIVER, S-9, AROCLOR 1254, Method: PREINCUBATION) was “inactive; negative”. The mutagenic call (Test System: AMES SALMONELLA TYPHIMURIUM, Strain/Indicator: TA1535, Metabolic Activation: HAMSTER, LIVER, S-9, AROCLOR 1254 (10%), Method: STANDARD PLATE) was “inactive; negative”, the mutagenic call (Test System: AMES SALMONELLA TYPHIMURIUM, Strain/Indicator: TA1535, Metabolic Activation: HAMSTER, LIVER, S-9, AROCLOR 1254, Method: PREINCUBATION) was “inactive; negative” and the mutagenic call (Test System: AMES SALMONELLA TYPHIMURIUM, Strain/Indicator: TA1535, Metabolic Activation: NONE, Method: PREINCUBATION) was “inactive; negative”. For the same compound, the mutagenic call (Test System: AMES SALMONELLA TYPHIMURIUM, Strain/Indicator: TA1535, Metabolic Activation: NONE, Method: STANDARD PLATE) was “inactive; negative”, the mutagenic call (Test System: AMES SALMONELLA TYPHIMURIUM, Strain/Indicator: TA1535, Metabolic Activation: RAT, LIVER, S-9, AROCLOR 1254 (10%), Method: STANDARD PLATE) was “inactive; negative” and the mutagenic call (Test System: AMES SALMONELLA TYPHIMURIUM, Strain/Indicator: TA1535, Metabolic Activation: RAT, LIVER, S-9, AROCLOR 1254, Method: PREINCUBATION) was “inactive; negative”. The mutagenic call (Test System: AMES SALMONELLA TYPHIMURIUM, Strain/Indicator: TA1537, Metabolic Activation: HAMSTER, LIVER, S-9, AROCLOR 1254 (10%), Method: STANDARD PLATE) was “inactive; negative”, the mutagenic call (Test System: AMES SALMONELLA TYPHIMURIUM, Strain/Indicator: TA1537, Metabolic Activation: NONE, Method: STANDARD PLATE) was “inactive; negative” and the mutagenic call (Test System: AMES SALMONELLA TYPHIMURIUM, Strain/Indicator: TA1537, Metabolic Activation: RAT, LIVER, S-9, AROCLOR 1254 (10%), Method: STANDARD PLATE) was “inactive; negative”. For the same compound, the mutagenic call (Test System: AMES SALMONELLA TYPHIMURIUM, Strain/Indicator: TA1538, Metabolic Activation: HAMSTER, LIVER, S-9, AROCLOR 1254 (10%), Method: STANDARD PLATE) was “inactive; negative”, the mutagenic call (Test System: AMES SALMONELLA TYPHIMURIUM, Strain/Indicator: TA1538, Metabolic Activation: NONE, Method: STANDARD PLATE) was “inactive; negative” and the mutagenic call (Test System: AMES SALMONELLA TYPHIMURIUM, Strain/Indicator: TA1538, Metabolic Activation: RAT, LIVER, S-9, AROCLOR 1254 (10%), Method: STANDARD PLATE) was “inactive; negative”. The mutagenic call (Test System: MOUSE LYMPHOMA, Strain/Indicator: L5178Y (TK+/TK-), Metabolic Activation: NONE, Method: SUSPENSION/PLATE) was “inactive; negative. reevaluation of results: inconclusive” and the mutagenic call (Test System: MOUSE LYMPHOMA, Strain/Indicator: L5178Y (TK+/TK-), Metabolic Activation: RAT, LIVER, S-9, AROCLOR 1254, Method: SUSPENSION/PLATE) was “inactive; negative. reevaluation of results: inconclusive”.

For `CCN(CC)Cc1cc(Nc2ccnc3cc(Cl)ccc23)ccc1O`, the mutagenic call (Test System: AMES SALMONELLA TYPHIMURIUM, Strain/Indicator: TA97A, Metabolic Activation: NONE, Method: STANDARD PLATE) was “inactive; negative”, the mutagenic call (Test System: AMES SALMONELLA TYPHIMURIUM, Strain/Indicator: TA97A, Metabolic Activation: RAT LIVER S-9, PHENOBARBITAL, Method: STANDARD PLATE) was “inactive; negative” and the mutagenic call [1] was “inactive; negative”. For the same compound, the mutagenic call (Test System: AMES SALMONELLA TYPHIMURIUM, Strain/Indicator: TA100, Metabolic Activation: RAT LIVER S-9, PHENOBARBITAL, Method: STANDARD PLATE) was “inactive; negative”, the mutagenic call (Test System: AMES SALMONELLA TYPHIMURIUM, Strain/Indicator: TA102, Metabolic Activation: NONE, Method: STANDARD PLATE) was “inactive; negative” and the mutagenic call (Test System: AMES SALMONELLA TYPHIMURIUM, Strain/Indicator: TA102, Metabolic Activation: RAT LIVER S-9, PHENOBARBITAL, Method: STANDARD PLATE) was “inactive; negative”. For the same compound, the mutagenic call (Test System: AMES SALMONELLA TYPHIMURIUM, Strain/Indicator: TA104, Metabolic Activation: NONE, Method: STANDARD PLATE) was “inactive; negative” and the mutagenic call (Test System: AMES SALMONELLA TYPHIMURIUM, Strain/Indicator: TA104, Metabolic Activation: RAT LIVER S-9, PHENOBARBITAL, Method: STANDARD PLATE) was “inactive; negative”.
